Test results reported in patent US20230263786A1, “MODULATION OF DRUG-DRUG INTERACTIONS OF VADADUSTAT” (Akebia Therapeutics, Inc., priority 2020, published 2023).
Read-outs that look alike come from different tables or passages of the source.

Experiments:
human PHD3 = human PHD3 (Homo sapiens, UniProt Q9H6Z9); assay: PHD inhibitory action, PHD3; assay type: biochemical; settings: in vitro
erythropoietin = assay: Blood erythropoietin concentration increasing action; assay type: in vivo; settings: normal rat, single oral administration
hemoglobin = assay: Phase III clinical trial in patients with hemodialysis anemia; assay type: in vivo, human
Procedure: The incidence of adverse reactions when this drug was administered up to 24 weeks was 8.3% (2/24 cases).

[1] = Phase 1 oral iron interaction study, Cohort 3 (fasting): dried ferrous sulfate slow release; assay type: in vivo, human; settings: for AUC(0-inf) / AUC(0-t) / Cmax / half-life: male, human, plasma, oral; for AUC(0-inf): read-out: AUC(0-inf), LS geometric mean; for AUC(0-t): read-out: AUC(0-last), LS geometric mean; for Cmax: read-out: Cmax, LS geometric mean; for half-life: read-out: t1/2, LS geometric mean (converted)
Source text: The study included 3 periods as follow: • Screening: performed within 4 weeks before the day of administration of the study drug. • Evaluation period: Cohort 1 was confined to the study site for 10-night, 11-day. Cohort 2 and Cohort 3 were confined to the study site for 7 nights and 8 days. • Post-administration tests: performed 3 days after administration of the last dose of the study drug.
In Cohort 3, 20 subjects were further randomized into 2 groups (10 subjects per group) and the evaluation period was divided into 2 periods during the study:
(§1) Administration of vadadustat tablets alone: after fasting for at least 10 hours, 1 vadadustat tablet (150 mg) would be taken orally with 200 mL of water (extra water may be drunk if more is needed when taking the tablet, and the extra volume would be recorded). Subjects would fast until the end of the collection of blood samples at 4 hours after administration of the study drug. Subjects would eat lunch over a period of 20 minutes after blood samples were collected at 4 hours after administration of the study drug. After lunch, subjects would fast until dinner, when they would eat dinner over a period of 20 minutes at 10 hours after administration of the study drug. Subjects would fast from dinner until breakfast the next morning.
as §1, with “and dried ferrous sulfate:” for “alone:”, “mg) and 2 tablets of dried ferrous sulfate (containing 210 mg of iron)” for “mg)”, “tablets,” for “tablet,”

[2] = Phase I calcium acetate interaction study; assay type: in vivo, human; settings: for AUC(0-t) / Cmax / Tmax / AUC(0-inf) / clearance / half-life / Vd: human, plasma, oral; for Tmax: median; for clearance: read-out: Clearance (ClB) (converted); for half-life: read-out: Elimination half-life (t1/2) (converted); for Vd: read-out: Volume of distribution (Vc)
Procedure: A phase I, open-label, fixed-sequence study was conducted in healthy adult subjects to assess the effect of 1) a single oral dose of calcium acetate on the pharmacokinetics of a single oral dose of vadadustat.
The study included screening (28 days maximum), 9-day treatment period, and a 14-day follow-up period post last dose.
Pharmacokinetics. A predose PK blood sample was collected on Day 1. After each dose of vadadustat administered (Days 1, 3, 5, and 7), blood samples for PK analysis were collected at the following time points: predose and 0.5, 1, 1.5, 2, 3, 4, 6, 9, 12, 16, 24, and 48 hours after each dose of vadadustat. The 48-hour postdose sample was collected before vadadustat administration on Days 3, 5, and 7. The following parameters were calculated and analyzed: AUC0-∞, AUC0-last, Cmax, Tmax, Kel, CIB, Vc/F, and t1/2.
Subjects were dosed approximately at the same designated time on each dosing day, where applicable. Study drugs were administered with approximately 8 ounces (240 mL) of water at room temperature in a seated position. Subjects were instructed to drink the full 8 ounces of water, and not to chew or break the tablets/gelcaps.
The 9-day treatment period was conducted as follows: • Day 1: vadadustat administered immediately after consuming breakfast. • Day 2: wash-out (no investigational product administration). • Day 3: vadadustat administered concomitantly with the requisite phosphate binder immediately after consuming breakfast. • Day 4: wash-out (no investigational product administration). • Day 5: vadadustat administered in fasted condition and the phosphate binder administered 1 hour later (breakfast must be served within 2 minutes after phosphate binder administration and consumed immediately after it is served). • Day 6: wash-out (no investigational product administration). • Day 7: phosphate binder administered immediately after consuming breakfast; vadadustat administered 2 hours after the phosphate binder was administered. • Day 8: wash-out (no investigational product administration). • Day 9: subjects discharged from the Clinical Research Unit (CRU) after the 48-hour postdose PK blood sample has been collected.
A single oral dose of vadadustat 300 mg (2×150 mg tablets) was administered on Days 1, 3, 5, and 7. Phosphate binder that is calcium acetate (1334 mg, 2×667 mg gelcaps) was administered on Days 3, 5, and 7.

[3] = 150 mg with dried ferrous sulfate slow release (210 mg iron), fasting
[4] = concomitant administration of phosphate binder, ANOVA
[5] = 300 mg, Concomitant administration with calcium acetate 1334 mg after breakfast
[6] = 300 mg, Vadadustat 300 mg alone, immediately after breakfast
[7] = 300 mg, Vadadustat administered 1 hour prior to calcium acetate, fasting
[8] = 300 mg, Vadadustat administered 2 hours after calcium acetate

Sequence of human PHD3 (Q9H6Z9 whole entry): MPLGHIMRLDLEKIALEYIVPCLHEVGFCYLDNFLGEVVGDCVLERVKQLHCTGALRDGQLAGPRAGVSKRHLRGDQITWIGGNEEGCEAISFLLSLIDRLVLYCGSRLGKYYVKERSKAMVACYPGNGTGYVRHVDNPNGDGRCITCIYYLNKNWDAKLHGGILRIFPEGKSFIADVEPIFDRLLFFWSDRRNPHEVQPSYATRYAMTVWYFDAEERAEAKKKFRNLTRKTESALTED

## O=C(O)CNC(=O)c1ncc(-c2cccc(Cl)c2)cc1O [Compound 1, {[5-(3-chlorophenyl)-3-hydroxypyridine-2-carbonyl]amino}acetic acid]
Human PHD3
  IC50: 7.63 nM
erythropoietin
  blood erythropoietin levels: elevated
hemoglobin; administered up to 24 weeks
  incidence of adverse reactions: 8.3%
hemoglobin; at 20 and 24 weeks, 150-600 mg once daily, adjusted average ± standard error
  Average hemoglobin level, After administration: 10.75 ± 0.19
hemoglobin; hemodialysis anemia patients, baseline, mean ± standard deviation
  Average hemoglobin level, Before administration: 9.30 ± 0.67
[1]; [3]
  Kel, LS geometric mean: 0.14 h⁻¹
  AUC(0-inf): 13.2 µg·h/mL
  AUC(0-t): 12 µg·h/mL
  Cmax: 2140 ng/mL
  half-life: 4.8 h
[1]; Compound 1 150 mg alone, fasting
  Kel, LS geometric mean: 0.13 h⁻¹
[1]; 150 mg
  AUC(0-inf): 128 µg·h/mL
  AUC(0-t): 124 µg·h/mL
  Cmax: 26500 ng/mL
  half-life: 5.17 h
[2]; [4]
  reduction of AUC0-last and AUC0-∞: about 55%
  reduction of Cmax: about 51%
[2]; [5]
  AUC(0-t): 77.4 ± 31.7 µg·h/mL
  Cmax: 11300 ± 4390 ng/mL
  Tmax: 4 h
  clearance: 77.3 mL/min
  half-life: 4.58 ± 0.9 h
  Vd: 29.8 ± 14.6 L
[2]; 300 mg, Concomitant administration with calcium acetate 1334 mg after breakfast, read-out: AUC0-∞
  AUC(0-inf): 79.6 ± 32.7 µg·h/mL
[2]; [6]
  AUC(0-t): 163 ± 45.7 µg·h/mL
  Cmax: 21900 ± 5610 ng/mL
  Tmax: 3.93 h
  clearance: 31.8 mL/min
  half-life: 4.75 ± 1.2 h
  Vd: 12.6 ± 2.41 L
[2]; 300 mg, Vadadustat 300 mg alone, immediately after breakfast, read-out: AUC0-∞
  AUC(0-inf): 166 ± 45.4 µg·h/mL
[2]; [7]
  AUC(0-t): 130 ± 36.2 µg·h/mL
  Cmax: 25000 ± 9560 ng/mL
  Tmax: 1.44 h
  clearance: 40.3 mL/min
  half-life: 4.47 ± 0.75 h
  Vd: 15.3 ± 3.25 L
[2]; 300 mg, Vadadustat administered 1 hour prior to calcium acetate, fasting, read-out: AUC0-∞
  AUC(0-inf): 133 ± 36.8 µg·h/mL
[2]; [8]
  AUC(0-t): 132 ± 44.3 µg·h/mL
  Cmax: 24600 ± 7130 ng/mL
  Tmax: 2.97 h
  clearance: 42.2 mL/min
  half-life: 4.84 ± 1.03 h
  Vd: 17.8 ± 9.99 L
[2]; 300 mg, Vadadustat administered 2 hours after calcium acetate, read-out: AUC0-∞
  AUC(0-inf): 135 ± 44.3 µg·h/mL
[2]; vadadustat administered concurrently with calcium acetate, read-out: geometric LS mean AUC0-∞
  AUC(0-inf): 72.4 µg·h/mL
[2]; vadadustat administered 1 hour prior to calcium acetate
  changes in vadadustat exposure: within the prespecified no-effect boundaries of 80% to 125%
[2]; vadadustat administered 2 hours after calcium acetate
  changes in vadadustat exposure: within the prespecified no-effect boundaries of 80% to 125%
